A melting point compilation (Tetko et al.)

SMILES	melting point
CC(C)P(c1ccccc1)c1ccccc1	40 °C
CCOc1cc(C(=S)N2CCCCC2)ccc1O	123 °C
Fc1cccc(Cl)c1CCl	7 °C
O=S(=O)(Cl)Cc1ccc(Cl)cc1	95 °C
Cc1cc(Cl)c2ccccc2n1	39 to 41 °C
O=C(c1ccc(O)cc1)c1ccccc1F	117 °C
CC1(C)CC2C(C(=O)O1)C2(C)C (stereo unspecified)	80 to 83 °C
FC(F)(F)c1ccc(=S)[nH]c1	159 to 160 °C
O=[N+]([O-])c1cccc(S(=O)(=O)OCC2CO2)c1 (stereo unspecified)	61 to 65 °C
CCOC(=O)Nc1ccc2cc3ccc(N)c(CO)c3nc2c1	135 °C
CC(NC(=O)C(F)(F)C(F)(F)C(F)(F)C(F)(F)C(F)(F)C(F)(F)C(F)(F)C(F)(F)F)c1ccccc1 (stereo unspecified)	100 °C
C=CC(C)(CCC=C(C)C)OC(=O)C(C)C (stereo unspecified)	< 25 °C
OCc1cccc(COc2ccccc2)c1	58 to 60 °C
Cc1ccc(O)cn1	169 °C
O=C(N=C=S)c1cccc([N+](=O)[O-])c1	93 to 95 °C
NC(COc1ccc(C2SCCS2)cc1)=NO	113 to 115 °C
Fc1ccc(-c2n[nH]c(=S)n2-n2cccc2)cc1	234 °C
Oc1ccccc1C=Nn1c(S)nnc1C(F)(F)F	155 °C
COc1ccc(F)cc1CBr	60 °C
COc1cc(N)c(C(=O)O)cc1OC	155 to 160 °C
Cn1nc(CCNC(=O)c2cc([N+](=O)[O-])cc([N+](=O)[O-])c2)c2c(N)ncnc21	281 °C
C=CCC1(O)CCC2C3CCC4=CC(=O)CCC4=C3C=CC21C (stereo unspecified)	120 °C
Nc1nn2c(C(F)(F)F)cc(=O)[nH]c2c1/N=N/c1c(Cl)cc(Cl)cc1Cl	275 °C

SMILES	melting point
CCOc1ccc(N=C(CNc2ccc(OCC)cc2)Nc2ccc(OCC)cc2)cc1	113 °C
Cc1ccc2cc(F)ccc2n1	54 °C
O=C1c2cccc(O)c2C(=O)c2c(O)cc(CO)cc21	224 °C
OCc1nccs1	62 to 64 °C
Cc1ccc2nc(C(F)(F)F)cc(Cl)c2c1	62 to 65 °C
COC(=O)c1ccncc1	12.1 °C
OCc1ccc(SC(F)(F)F)cc1	52 °C
COC(=O)c1sccc1NN	69 to 71 °C
O=C(NC(CO)C(O)c1ccc([N+](=O)[O-])cc1)C(Cl)Cl (stereo unspecified)	150 °C
O=C1c2ccccc2C(=O)c2c1cccc2[N+](=O)[O-]	232 °C
Cc1cccc2c(O)cc(C(F)(F)F)nc12	128 to 131 °C
CC(C)(C)OC(=O)N[C@@H](Cc1cccc(C#N)c1)C(=O)O	124 °C
Cc1ccc(OCC(=O)NN)c2c1CCC2	145 to 156 °C
CC1CC2C3CC(F)C4=CC(=O)C=CC4(C)C3(F)C(O)CC2(C)C1C(=O)CO (stereo unspecified)	242 °C
CC(C)(C)OC(=O)NCc1ccc(CO)cc1	98 to 99 °C
O=C(O)CCc1cccc(O)c1	112 °C
CCCCCCCCCCCCC1=C(OC(C)=O)C(=O)c2ccccc2C1=O	59.6 °C
C[C@H](CCC(=O)O)[C@H]1CC[C@H]2[C@@H]3CC[C@H]4CC(=O)CC[C@]4(C)[C@H]3CC[C@]12C	189 °C
CCCCC(CC)COC(=O)CCCCCCCC(=O)OCC(CC)CCCC (stereo unspecified)	-78 °C
Cc1ccc(-c2cccc(-c3ccc(C)cc3)n2)cc1	165 °C
Cc1cccc(C)c1NC(=O)c1cncc(Cl)n1	122 °C
Cc1nc(-c2ccc(Br)s2)no1	54 to 55 °C
Nc1c(Cl)c(F)nc(OCC(=O)O)c1Cl	232 °C

SMILES	melting point
CCOC(=O)c1c(-c2ccccc2)csc1NC(=O)c1ccc(Cl)cc1	171 to 172 °C
CN1CCCN(C)CCN(C)CCCN(C)CC1	41 to 43 °C
Cc1ccc2nc(C(F)(F)F)cc(Cl)c2c1[N+](=O)[O-]	119 to 121 °C
O=C(O)COc1ccc(Br)cc1	156 to 161 °C
NC(=S)Cc1ccc(Cl)cc1	129 to 131 °C
CN(CC(=O)O)CC(=O)O	218 to 221 °C
O=C(O)c1cc(=O)c2ccccc2o1	260 °C
COc1nsc(Nc2ccc(Cl)cc2)n1	247 to 249 °C
N=c1oc2ccccc2cc1-c1nc2ccccc2s1	186 °C
N[C@H]1CCC[C@H]1C(=O)O (relative stereo)	218 to 220 °C
CCC1(O)CCC2(C)C(CCC3C4CCC(=O)C4(C)CCC32)C1 (stereo unspecified)	113 to 116 °C
O=C1C2=C(CCCC2)C(=O)N1CO	80 to 84 °C
Nc1ccccc1C(=O)c1ccccc1C(=O)O	196 to 200 °C
CCCCCCCCCCCCCCCCCC(=O)Oc1ccccc1	52 °C
OCC1CCNCC1	59 °C
CN1CCN(C(c2ccccc2)c2ccccc2)CC1	106 °C
C=CC1(C)CCC2C(=CCC3C(C)(C(=O)O)CCCC23C)C1 (stereo unspecified)	160 °C
Cc1cccc(N)c1C(=O)O	124 °C
CC1C(=O)OC(C)(C)OC1=O	109 to 113 °C
NC(=S)c1ccc(C2SCCS2)cc1	174 °C
CN(CC(=O)N1CCOCC1)Cc1c(Cl)cccc1NC(=O)c1ccccc1	123 °C
CC1CC(O)CC(C)(C)C1 (stereo unspecified)	55.8 °C
Fc1cnccc1I	88 °C

SMILES	melting point
CCOC(=O)C(ON=C(c1cc2ccccc2o1)c1cc2ccccc2o1)C(=O)OCC	137 to 138 °C
O=C(Cl)c1cccc(C(=O)Cl)n1	59 °C
CC1(C)OC2(C)CCC1C(=O)OC2(C)C (stereo unspecified)	78 °C
CC(C)(C)S(=O)(=O)c1cnc(N2CCOCC2)nc1N	196 to 198 °C
c1cc(-c2n[nH]c(-c3ccncc3)n2)ccn1	242 °C
COc1ccc2oc(C(=O)O)cc2c1	212 to 214 °C
Cc1ccc([Si](C)(c2ccc(C)cc2)c2ccc(C)cc2)cc1	92 °C
CCOc1ccc2nc(S(N)(=O)=O)sc2c1	188 °C
O=Cc1cnc(N2CCCCC2)s1	49 °C
Cc1cc(C)n(CO)n1	109 °C
O=C(CBr)c1ccc(C(=O)CBr)cc1	173 °C
CSc1nc(N)nc(N2CCCCC2)n1	156 to 158 °C
c1cc2c3c(ccc4c3c1CCC4)CCC2	133 °C
Cc1ccc(S(=O)(=O)N2CCCN(S(=O)(=O)c3ccc(C)cc3)CCN(S(=O)(=O)c3ccc(C)cc3)CCC2)cc1	238 °C
O=C(O)CCNC(=O)CCl	91 to 92 °C
N#Cc1ccccc1COc1ccccc1	62 to 64 °C
CCN(CC)C(N)=O	66 to 71 °C
CC12CCC(O)CC1CCC1C3CCC(O)(C#Cc4ccccc4)C3CCC12 (stereo unspecified)	118 to 125 °C
C[C@H]1NC(=O)O[C@H]1c1ccccc1	118 to 121 °C
Oc1ccc(Br)c(O)c1	103 °C
O=C(O)CC(Br)C(=O)O (racemic)	160 to 166 °C
CCOC(=O)C1=C(C)NC(=O)NC1c1ccc([N+](=O)[O-])cc1 (stereo unspecified)	208 °C
